The experiment concerns the target Solute carrier family 12 member 2 (Homo sapiens) (UniProt P55011). As to the kind of experiment: NKCC1 ion transport inhibition – HEK-293 overexpressing cells, thallium flux, dose response (AID 1919674). Conditions: HEK-293 SLC12A2 OE, thallium flux fluorescence (FLIPR).

Chain of Solute carrier family 12 member 2 (Homo sapiens) (P55011 whole entry, looked up): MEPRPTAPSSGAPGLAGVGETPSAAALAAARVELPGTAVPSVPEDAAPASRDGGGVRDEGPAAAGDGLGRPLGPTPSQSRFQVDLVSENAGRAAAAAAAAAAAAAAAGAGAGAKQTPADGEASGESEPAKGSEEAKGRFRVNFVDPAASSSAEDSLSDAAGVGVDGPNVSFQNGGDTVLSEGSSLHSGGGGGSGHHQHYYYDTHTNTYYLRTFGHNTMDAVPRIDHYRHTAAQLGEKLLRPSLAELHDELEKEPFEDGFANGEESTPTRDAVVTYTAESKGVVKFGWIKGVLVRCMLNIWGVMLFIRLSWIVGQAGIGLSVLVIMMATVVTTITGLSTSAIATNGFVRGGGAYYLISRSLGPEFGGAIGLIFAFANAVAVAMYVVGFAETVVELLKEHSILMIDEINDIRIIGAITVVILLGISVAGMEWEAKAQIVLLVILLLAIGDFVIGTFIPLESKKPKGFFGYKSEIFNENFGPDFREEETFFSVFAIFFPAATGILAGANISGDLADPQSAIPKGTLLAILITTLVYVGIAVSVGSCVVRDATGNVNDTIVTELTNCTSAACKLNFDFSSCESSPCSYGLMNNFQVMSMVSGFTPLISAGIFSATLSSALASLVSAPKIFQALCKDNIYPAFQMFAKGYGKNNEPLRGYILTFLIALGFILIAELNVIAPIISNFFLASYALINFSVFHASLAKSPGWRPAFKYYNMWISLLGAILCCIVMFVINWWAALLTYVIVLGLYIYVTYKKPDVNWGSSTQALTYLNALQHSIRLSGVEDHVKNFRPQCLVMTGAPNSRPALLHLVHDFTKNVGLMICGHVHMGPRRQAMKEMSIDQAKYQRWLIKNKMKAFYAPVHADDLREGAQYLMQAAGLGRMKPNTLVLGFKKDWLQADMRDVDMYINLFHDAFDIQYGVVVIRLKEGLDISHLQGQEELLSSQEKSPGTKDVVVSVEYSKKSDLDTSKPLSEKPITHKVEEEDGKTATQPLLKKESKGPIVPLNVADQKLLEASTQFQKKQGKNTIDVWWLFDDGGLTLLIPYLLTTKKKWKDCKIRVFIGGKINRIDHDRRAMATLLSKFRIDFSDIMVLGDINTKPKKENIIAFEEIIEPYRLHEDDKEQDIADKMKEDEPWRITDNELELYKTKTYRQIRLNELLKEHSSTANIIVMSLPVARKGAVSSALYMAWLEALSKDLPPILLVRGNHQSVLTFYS

Consider `[Tl+]`, for which the IC50 was 600 µM.

The values are drawn from PubChem BioAssay AID1919674.
